Species: Rattus norvegicus
Experiment: Open TG-GATES - Regimen: Single
Type: toxicity, organism-based, Sprague-Dawley
Set-up: regimen Single, gender Male, age 6 weeks
Details: in vivo, po, 0 mg/kg, route gavage, dose level Control; for APTT / Bas / Eos / Fbg / Hb / Ht / Lym / MCH / MCHC / MCV / Mono / Neu / PT / Plat / RBC / Ret / WBC: tissue Blood; for KIDNEY_L / KIDNEY_R / KIDNEY_TOTAL: tissue Kidney; for LIVER: tissue Liver; for A/G / ALP / ALT / AST / BUN / CRE / Ca / Cl / DBIL / GLC / IP / K / LDH / Na / PL / RALB / TBIL / TC / TG / TP / gamma-GTP: tissue Plasma

## CC(S)C(=O)NCC(=O)O (configuration not stated) [TIOPRONIN]
3 h
  TERMINAL_BW: 208.8 g
  APTT: 22.5 s
  Bas: 0%
  Eos: 0.8%
  Fbg: 292.4 mg/dL
  Hb: 13.1 g/dL
  Ht: 40.4%
  Lym: 81.6%
  MCH: 20.2 pg
  MCHC: 32.5%
  MCV: 62.3 fL
  Mono: 1.4%
  Neu: 15.8%
  PT: 16.1 s
  Plat: 120.4 x10_4/uL
  RBC: 649.6 x10_4/ul
  Ret: 7.5%
  WBC: 75.2 x10_2/uL
  KIDNEY_L: 0.9 g
  KIDNEY_R: 0.9 g
  KIDNEY_TOTAL: 1.8 g
  LIVER: 9.1 g
  A/G: 1.2
  ALP: 2032.2 IU/L
  ALT: 46 IU/L
  AST: 80.4 IU/L
  BUN: 11.4 mg/dL
  CRE: 0.1 mg/dL
  Ca: 10.7 mg/dL
  Cl: 107 meq/L
  DBIL: 0.002 mg/dL
  GLC: 190.8 mg/dL
  IP: 7.7 mg/dL
  K: 4.1 meq/L
  LDH: 203.8 IU/L
  Na: 143.8 meq/L
  PL: 128.6 mg/dL
  RALB: 2.9 g/dL
  TBIL: 0.02 mg/dL
  TC: 70.8 mg/dL
  TG: 65.4 mg/dL
  TP: 5.4 g/dL
  gamma-GTP: 1.8 IU/L
6 h
  TERMINAL_BW: 208.1 g
  APTT: 21.5 s
  Bas: 0%
  Eos: 0.2%
  Fbg: 295.4 mg/dL
  Hb: 13 g/dL
  Ht: 39.8%
  Lym: 83%
  MCH: 21 pg
  MCHC: 32.8%
  MCV: 64.1 fL
  Mono: 1.8%
  Neu: 14.2%
  PT: 15.8 s
  Plat: 116.3 x10_4/uL
  RBC: 621 x10_4/ul
  Ret: 8.1%
  WBC: 116.1 x10_2/uL
  KIDNEY_L: 0.9 g
  KIDNEY_R: 1 g
  KIDNEY_TOTAL: 1.9 g
  LIVER: 9 g
  A/G: 1.2
  ALP: 1487.4 IU/L
  ALT: 39 IU/L
  AST: 69.6 IU/L
  BUN: 10.6 mg/dL
  CRE: 0.1 mg/dL
  Ca: 10.5 mg/dL
  Cl: 106.4 meq/L
  DBIL: 0.002 mg/dL
  GLC: 184.2 mg/dL
  IP: 8.8 mg/dL
  K: 4.4 meq/L
  LDH: 154.4 IU/L
  Na: 143.8 meq/L
  PL: 141.4 mg/dL
  RALB: 2.9 g/dL
  TBIL: 0.022 mg/dL
  TC: 80.2 mg/dL
  TG: 72.2 mg/dL
  TP: 5.3 g/dL
  gamma-GTP: 1.6 IU/L
9 h
  TERMINAL_BW: 209.7 g
  APTT: 22.9 s
  Bas: 0%
  Eos: 0.8%
  Fbg: 294.2 mg/dL
  Hb: 12.7 g/dL
  Ht: 39.4%
  Lym: 81.6%
  MCH: 19.9 pg
  MCHC: 32.1%
  MCV: 61.7 fL
  Mono: 2%
  Neu: 15.2%
  PT: 16.2 s
  Plat: 121.4 x10_4/uL
  RBC: 639.2 x10_4/ul
  Ret: 8.3%
  WBC: 95.7 x10_2/uL
  KIDNEY_L: 0.9 g
  KIDNEY_R: 0.9 g
  KIDNEY_TOTAL: 1.9 g
  LIVER: 9.1 g
  A/G: 1.1
  ALP: 1667.4 IU/L
  ALT: 36.2 IU/L
  AST: 65.8 IU/L
  BUN: 12.2 mg/dL
  CRE: 0.1 mg/dL
  Ca: 10.5 mg/dL
  Cl: 105 meq/L
  DBIL: 0 mg/dL
  GLC: 195.8 mg/dL
  IP: 9.8 mg/dL
  K: 4.5 meq/L
  LDH: 147 IU/L
  Na: 143.8 meq/L
  PL: 120.2 mg/dL
  RALB: 2.8 g/dL
  TBIL: 0.012 mg/dL
  TC: 64.8 mg/dL
  TG: 64.2 mg/dL
  TP: 5.3 g/dL
  gamma-GTP: 1.4 IU/L
24 h
  TERMINAL_BW: 219.9 g
  APTT: 21.2 s
  Bas: 0%
  Eos: 1%
  Fbg: 307 mg/dL
  Hb: 12.9 g/dL
  Ht: 39.6%
  Lym: 77.8%
  MCH: 21.2 pg
  MCHC: 32.7%
  MCV: 64.7 fL
  Mono: 3%
  Neu: 17.4%
  PT: 16.4 s
  Plat: 115.1 x10_4/uL
  RBC: 612 x10_4/ul
  Ret: 7.6%
  WBC: 103.4 x10_2/uL
  KIDNEY_L: 1 g
  KIDNEY_R: 1 g
  KIDNEY_TOTAL: 2 g
  LIVER: 10.1 g
  A/G: 1.1
  ALP: 1636.2 IU/L
  ALT: 44 IU/L
  AST: 74.2 IU/L
  BUN: 16.6 mg/dL
  CRE: 0.2 mg/dL
  Ca: 10.7 mg/dL
  Cl: 105.6 meq/L
  DBIL: 0 mg/dL
  GLC: 196.4 mg/dL
  IP: 7.1 mg/dL
  K: 4.4 meq/L
  LDH: 179.8 IU/L
  Na: 142 meq/L
  PL: 135.2 mg/dL
  RALB: 2.8 g/dL
  TBIL: 0.004 mg/dL
  TC: 75.2 mg/dL
  TG: 76.8 mg/dL
  TP: 5.4 g/dL
  gamma-GTP: 1.4 IU/L

— ChEMBL document CHEMBL3885861, “Open TG-GATES”
